pIC50: −log10 of the molar value.
Legend:
[1] = molecular target: T1, NOX2 (Homo sapiens, UniProt P04839); assay: NOX2 activity assay: PMA-induced ROS in ATRA-differentiated HL-60 cells (WST-1 or Amplex Red/HRP probe); assay type: cell-based; details: WST-1 probe; differentiated HL-60, 200 ng/mL PMA; read-out: Inhibitory ability (NOX2)
T1 construct: Used for the NOX2 activity assay was human leukemia 60 cells (HL-60), which are widely, universally used to assess NOX2 activity; endogenous in cells
T1 sequence (P04839 2-570 limits assumed): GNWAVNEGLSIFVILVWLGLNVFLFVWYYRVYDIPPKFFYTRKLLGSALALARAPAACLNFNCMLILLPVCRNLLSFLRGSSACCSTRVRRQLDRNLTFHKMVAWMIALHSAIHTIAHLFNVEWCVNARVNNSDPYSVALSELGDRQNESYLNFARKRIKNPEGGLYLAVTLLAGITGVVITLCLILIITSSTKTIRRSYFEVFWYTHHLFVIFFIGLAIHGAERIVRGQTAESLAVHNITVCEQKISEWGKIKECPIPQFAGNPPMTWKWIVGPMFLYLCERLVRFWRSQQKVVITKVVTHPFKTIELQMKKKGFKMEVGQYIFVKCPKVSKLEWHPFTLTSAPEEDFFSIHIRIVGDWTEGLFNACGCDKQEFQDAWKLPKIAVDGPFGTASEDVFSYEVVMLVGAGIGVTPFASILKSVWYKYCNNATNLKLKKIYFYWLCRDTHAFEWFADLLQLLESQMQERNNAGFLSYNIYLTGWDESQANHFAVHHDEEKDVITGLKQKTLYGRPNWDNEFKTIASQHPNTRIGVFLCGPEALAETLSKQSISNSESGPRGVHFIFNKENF
T1 sequence (P13498 2-195 partner limits assumed): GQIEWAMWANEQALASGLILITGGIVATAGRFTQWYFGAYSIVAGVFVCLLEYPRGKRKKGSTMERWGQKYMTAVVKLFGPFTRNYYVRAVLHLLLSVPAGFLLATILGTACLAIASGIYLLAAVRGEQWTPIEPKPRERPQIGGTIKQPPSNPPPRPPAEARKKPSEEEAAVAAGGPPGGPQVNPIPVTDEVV
In short: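 HL-60 cells differentiated with ATRA for 4 days, seeded at 3×10^4 cells/well and preincubated with compound for 60 min at 37 °C. ROS from 200 ng/mL PMA stimulation was followed for 60 min at 37 °C by WST-1 absorbance (450 nm) or Amplex Red/HRP fluorescence (Ex 560/Em 585 nm); DMSO vehicle control.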

[2] = Non-specific free radical scavenging: superoxide produced by xanthine/xanthine oxidase, measured by WST-1; assay type: biochemical; details: compound at 10 or 30 μM
Protocol: The scavenging activity that the effective compound in 10 or 30 μM scavenges the superoxide produced by xanthine/xanthine oxidase was measured by WST-1, the results of which are shown in Table 2.

Question: With CC12CC(NC(=O)N1c1cccc(C(=O)N3CCc4ccccc4C3)c1)c1ccccc1O2 (racemic) [Compound 8a, 2-Methyl-3-(3-(1,2,3,4-tetrahydroisoquinoline-2-carbonyl)phenyl)-5,6-dihydro-2H-2,6-methanobenzo[g][1,3,5]oxadiazocin-4(3H)-one] as the molecule, how does the pIC50 [1] read?
Answer: 5.00 to 6.00

Question: And the “scavenging of superoxide produced by xanthine/xanthine oxidase” value [2]?
Answer: did not exhibit significant peroxide scavenging ability

Question: With CC12CC(NC(=O)N1c1cccc(C(=O)N3CCc4cc(C(F)(F)F)ccc4C3)c1)c1cc(Br)ccc1O2 (stereo not drawn) [Compound 27h, 8-Bromo-2-methyl-3-(3-(6-(trifluoromethyl)-1,2,3,4-tetrahydroisoquinoline-2-carbonyl)phenyl)-5,6-dihydro-2H-2,6-methanobenzo[g][1,3,5]oxadiazocin-4(3H)-one] as the molecule, how does the pIC50 [1] read?
Answer: 5.00 to 6.00

Question: With CC12CC(NC(=O)N1c1cccc(C(=O)N3CCc4ccccc4C3)c1)c1cc(Cl)ccc1O2 (stereo not drawn) [Compound 25c, 8-Chloro-2-methyl-3-(3-(1,2,3,4-tetrahydroisoquinoline-2-carbonyl)phenyl)-5,6-dihydro-2H-2,6-methanobenzo[g][1,3,5]oxadiazocin-4(3H)-one] as the molecule, how does the pIC50 [1] read?
Answer: 5.00 to 6.00

Question: With C[C@]12C[C@H](NC(=O)N1c1cccc(C(=O)N3CCc4ccccc4C3)c1)c1ccccc1O2 [Compound 10c, (2S,6S)-2-Methyl-3-(3-(1,2,3,4-tetrahydroisoquinoline-2-carbonyl)phenyl)-5,6-dihydro-2H-2,6-methanobenzo[g][1,3,5]oxadiazocin-4(3H)-one] as the molecule, how does the pIC50 [1] read?
Answer: 5.00 to 6.00

Question: With CC12CC(NC(=O)N1c1cccc(C(=O)NC3Cc4ccccc4C3)c1)c1ccccc1O2 (racemic) [Compound 8e, N-(2,3-Dihydro-1H-inden-2-yl)-3-(2-methyl-4-oxo-5,6-dihydro-2H-2,6-methanobenzo[g][1,3,5]oxadiazocin-3(4H)-yl)benzamide] as the molecule, how does the pIC50 [1] read?
Answer: < 5.00

Source: US20250382303A1, “NOVEL COMPOUND AS NADPH OXIDASE 2 INHIBITOR AND PHARMACEUTICAL COMPOSITION CONTAINING SAME” (DONGGUK UNIVERSITY INDUSTRY-ACADEMIC COOPERATION FOUNDATION, priority 2022, published 2025)
